From ChEMBL document CHEMBL3227942, “Synthetic studies on beta-lactam antibiotics. Part 101. Synthesis of 7beta-[2-carboxy-2-(4-hydroxyphenyl)acetamido]-7alpha-methoxy-3-[[(1-methyl-1H-tetrazol-5-yl)thio]-methyl]-1-oxa-1-dethia-3-cephem-4-carboxylic acid disodium salt (6059-S) and its related 1-oxacephems” (1979)
≈ marks a conversion by molar mass, not a printed value.

Experiments:
Assay type in all cases: functional
[1] = test system: Proteus vulgaris; assay: Antibacterial activity against Proteus vulgaris CN-329
[2] = test system: Staphylococcus aureus; assay: Antibacterial activity against Staphylococcus aureus 209P JC-1
[3] = test system: Pseudomonas aeruginosa; assay: Antibacterial activity against Pseudomonas aeruginosa 24
[4] = test system: Klebsiella pneumoniae; assay: Antibacterial activity against beta-lactamase producing Klebsiella pneumoniae 363
[5] = test system: Staphylococcus aureus; assay: Antibacterial activity against beta-lactamase producing Staphylococcus aureus C-14
[6] = test system: Serratia marcescens; assay: Antibacterial activity against Serratia marcescens ATCC 13880
[7] = test system: Enterobacter cloacae; assay: Antibacterial activity against Enterobacter cloacae 233
[8] = test system: Proteus mirabilis; assay: Antibacterial activity against Proteus mirabilis PR-4
[9] = test system: Escherichia coli; assay: Antibacterial activity against Escherichia coli NIHJ JC-2
[10] = test system: Klebsiella pneumoniae; assay: Antibacterial activity against Klebsiella pneumoniae
[11] = test system: Streptococcus pneumoniae; assay: Antibacterial activity against Streptococcus pneumoniae I

Compound	MIC [1]	MIC [2]	MIC [3]	MIC [4]	MIC [5]	MIC [6]	MIC [7]	MIC [8]	MIC [9]	MIC [10]	MIC [11]
CC(=O)OCC1=C(C(=O)O)N2C(=O)[C@@H](NC(=O)Cc3cccs3)[C@H]2OC1	50 µg/mL (≈ 131 µM)	0.013 µg/mL (≈ 0.0342 µM)	> 100 µg/mL	> 100 µg/mL	0.1 µg/mL (≈ 0.263 µM)	> 100 µg/mL	100 µg/mL (≈ 263 µM)	0.4 µg/mL (≈ 1.05 µM)	0.8 µg/mL (≈ 2.1 µM)	0.2 µg/mL (≈ 0.526 µM)	0.025 µg/mL (≈ 0.0657 µM)
Cn1nnnc1SCC1=C(C(=O)O)N2C(=O)[C@@H](NC(=O)[C@H](O)c3ccccc3)[C@H]2SC1 [CEFAMANDOLE]	0.8 µg/mL (≈ 1.73 µM)	0.1 µg/mL (≈ 0.216 µM)	> 100 µg/mL	> 100 µg/mL	0.4 µg/mL (≈ 0.865 µM)	50 µg/mL (≈ 108 µM)	3.1 µg/mL (≈ 6.7 µM)	0.8 µg/mL (≈ 1.73 µM)	0.4 µg/mL (≈ 0.865 µM)	0.4 µg/mL (≈ 0.865 µM)	0.1 µg/mL (≈ 0.216 µM)
CC(=O)OCC1=C(C(=O)O)N2C(=O)[C@@H](NC(=O)Cc3cccs3)[C@H]2SC1 [CEPHALOTHIN]	50 µg/mL (≈ 126 µM)	0.05 µg/mL (≈ 0.126 µM)	> 100 µg/mL	> 100 µg/mL	0.2 µg/mL (≈ 0.504 µM)	> 100 µg/mL	> 100 µg/mL	3.1 µg/mL (≈ 7.82 µM)	6.3 µg/mL (≈ 15.9 µM)	0.8 µg/mL (≈ 2.02 µM)	0.1 µg/mL (≈ 0.252 µM)

The next lines start with the values.

MIC [1]	MIC [2]	MIC [3]	MIC [4]	MIC [5]	MIC [6]	MIC [7]	MIC [8]	MIC [9]	MIC [10]	MIC [11]	Compound
0.1 µg/mL (≈ 0.224 µM)	0.025 µg/mL (≈ 0.056 µM)	> 100 µg/mL	100 µg/mL (≈ 224 µM)	0.4 µg/mL (≈ 0.896 µM)	6.3 µg/mL (≈ 14.1 µM)	0.4 µg/mL (≈ 0.896 µM)	0.1 µg/mL (≈ 0.224 µM)	0.05 µg/mL (≈ 0.112 µM)	0.05 µg/mL (≈ 0.112 µM)	0.025 µg/mL (≈ 0.056 µM)	Cn1nnnc1SCC1=C(C(=O)O)N2C(=O)[C@@H](NC(=O)[C@H](O)c3ccccc3)[C@H]2OC1
0.8 µg/mL (≈ 1.54 µM)	0.8 µg/mL (≈ 1.54 µM)	> 100 µg/mL	0.8 µg/mL (≈ 1.54 µM)	3.1 µg/mL (≈ 5.96 µM)	12.5 µg/mL (≈ 24 µM)	12.5 µg/mL (≈ 24 µM)	1.6 µg/mL (≈ 3.07 µM)	1.6 µg/mL (≈ 3.07 µM)	0.8 µg/mL (≈ 1.54 µM)	1.6 µg/mL (≈ 3.07 µM)	CO[C@]1(NC(=O)[C@H](OC=O)c2ccccc2)C(=O)N2C(C(=O)O)=C(CSc3nnnn3C)CS[C@@H]21
0.1 µg/mL	6.3 µg/mL	25 µg/mL	0.05 µg/mL	6.3 µg/mL	0.4 µg/mL	0.2 µg/mL	0.1 µg/mL	0.1 µg/mL	0.1 µg/mL	3.1 µg/mL	CO[C@@]1(NC(=O)C(C(=O)[O-])c2ccc(O)cc2)C(=O)N2C(C(=O)[O-])=C(CSc3nnnn3C)CO[C@@H]21.[Na+].[Na+] (some centres not stated) [MOXALACTAM DISODIUM]
0.2 µg/mL (≈ 0.396 µM)	0.4 µg/mL (≈ 0.793 µM)	> 100 µg/mL	0.1 µg/mL (≈ 0.198 µM)	0.4 µg/mL (≈ 0.793 µM)	3.1 µg/mL (≈ 6.14 µM)	3.1 µg/mL (≈ 6.14 µM)	0.2 µg/mL (≈ 0.396 µM)	0.05 µg/mL (≈ 0.0991 µM)	0.1 µg/mL (≈ 0.198 µM)	0.2 µg/mL (≈ 0.396 µM)	CO[C@@]1(NC(=O)[C@H](OC=O)c2ccccc2)C(=O)N2C(C(=O)O)=C(CSc3nnnn3C)CO[C@@H]21
